Like-named read-outs stand apart in the source and are kept apart here.
Settings: lacquer, 1200 h
Description: Using the above formulation with 5% Econazole and 53% ethanol, stability testing was performed. […] In addition, gas chromatography quantitative analysis was conducted on samples stored in glass containers for 50 days at 40° C./75%RH at varying pH (5.2, 6.83, 12.2; by addition of acid or base, as necessary).
The analytical test procedure involves a simple direct dilution and injection method for determining levels of both antifungal agent and enhancer compound in the same chromatogram, i.e., without separation steps. […] Specifically, a Hewlett-Packard Model 5890 Chromatograph with a Hewlett-Packard 50+(crosslinked 50% phenylmethylsiloxane), 30 m, 0.32 mm ID, 0.50μ film (Cat. #19091L) column and Model 7673 Autoinjector, operating in split mode (split flow 0.7 mL/min; split ratio 0.652:1), using methanol as wash solvent and hexanophenone as internal standard, was used for the analysis. In Table 2 the results are reported for the average of six injections.

Econazole Assay (pH 5.2)	Econazole Assay (pH 6.83)	Econazole Assay (pH 12.2)	SEPA assay (pH 5.2)	SEPA assay (pH 6.83)	SEPA assay (pH 12.2)	SMILES
94.29%	96.67%	97.60%	–	–	–	Clc1ccc(COC(Cn2ccnc2)c2ccc(Cl)cc2Cl)cc1 (stereo not drawn) [Econazole]
–	–	–	93.85%	98.41%	99.36%	CCCCCCCCCC1OCCO1 [SEPA, 2-n-nonyl-1,3-dioxolane]

Source: patent publication US6224887A, “Antifungal nail lacquer and method using same” (MacroChem Corporation, priority 1999, dated 2001)
